Measured values taken from patent US9216954B2, “Serine racemase inhibitor” (National University Corporation University of Toyama, priority 2012, dated 2015).

| SMILES | melting point [°C] |
| --- | --- |
| O=C(CNS(=O)(=O)Cc1ccccc1)Nc1c(F)cccc1F [DR-1, N-(2,6-difluorophenyl)-2-phenylmethanesulfonylaminoacetamide] | 141 to 142 |
| Cc1ccc(S(=O)(=O)NCC(=O)Nc2c(F)cccc2F)cc1 [DR-2, N-(2,6-Difluoro-phenyl)-2-(toluene-4-sulfonylamino)-acetamide] | 129 to 130 |
| CC(NC(=O)CNS(=O)(=O)Cc1ccccc1)c1ccccc1 (centres unmarked) [DR-3, N-(1-Phenyl-ethyl)-2-phenylmethanesulfonylamino-acetamide] | 147 to 148 |
| Cc1ccc(S(=O)(=O)NCC(=O)NCc2ccc(Br)cc2)cc1 [DR-10, N-(4-Bromo-benzyl)-2-(toluene-4-sulfonylamino)-acetamide] | 207 to 208 |
| Cc1ccc(S(=O)(=O)NCC(=O)NCc2ccc(Br)cc2F)cc1 [DR-11, N-(4-Bromo-2-fluoro-benzyl)-2-(toluene-4-sulfonylamino)-acetamide] | 123 to 124 |
| O=C(CNS(=O)(=O)Cc1ccccc1)Nc1cccc(Br)c1 [DR-12, N-(3-bromophenyl)-2-phenylmethanesulfonylaminoacetamide] | 215 to 216 |
| O=C(CNS(=O)(=O)Cc1ccccc1)Nc1ccc(Cl)cc1 [DR-14, N-(4-Chloro-phenyl)-2-phenylmethanesulfonylamino-acetamide] | 200 to 201 |
| Cc1ccc(/C=C/S(=O)(=O)NCC(=O)NCc2ccc(Br)cc2)cc1 [DR-31, N-(4-Bromo-benzyl)-2-(2-p-tolyl-ethenesulfonylamino)-acetamide] | 200 to 201 |
| COc1ccc(NC(=O)CNS(=O)(=O)/C=C/c2ccc(C)cc2)cc1 [DR-32, N-(4-Methoxy-phenyl)-2-(2-p-tolyl-ethenesulfonylamino)-acetamide] | 145 to 146 |
| Cc1ccc(/C=C/S(=O)(=O)NCC(=O)Nc2ccc(Br)cc2)cc1 [DR-33, N-(4-Bromo-phenyl)-2-(2-p-tolyl-ethenesulfonylamino)-acetamide] | 216 to 219 |
| O=C(/C=C/c1ccc(Cl)cc1)NC(=S)NNC(=O)Cc1cccs1 [LW-1, 3-(4-Chloro-phenyl)-N—[N′-(2-thiophen-2-yl-acetyl)-hydrazinocarbothioyl]-acrylamide] | 232 to 233 |
| O=C(/C=C/c1c(Cl)cc(Cl)cc1Cl)NC(=S)NNC(=O)Cc1cccs1 [LW-2, N—[N′-(2-Thiophen-2-yl-acetyl)-hydrazinocarbothioyl]-3-(2,4,6-trichloro-phenyl)-acrylamide] | 219 to 220 |
| O=C(/C=C/c1ccc([N+](=O)[O-])cc1)NC(=S)NNC(=O)Cc1cccs1 [LW-3, 3-(4-Nitro-phenyl)-N—[N′-(2-thiophen-2-yl-acetyl)-hydrazinocarbothioyl]-acrylamide] | 222 to 223 |
| Cc1ccc(/C=C/C(=O)NC(=S)NNC(=O)Cc2cccs2)cc1 [LW-4, N—[N′-(2-Thiophen-2-yl-acetyl)-hydrazinocarbothioyl]-3-p-tolyl-acrylamide] | 212 to 213 |
| COc1ccc(/C=C/C(=O)NC(=S)NNC(=O)Cc2cccs2)c(OC)c1 [LW-6, 3-(2,4-Dimethoxy-phenyl)-N—[N′-(2-thiophen-2-yl-acetyl)-hydrazinocarbothioyl]-acrylamide] | 207 to 208 |
| O=C(/C=C/c1cc(Br)cc(Br)c1)NC(=S)NNC(=O)Cc1cccs1 [LW-7, 3-(3,5-Dibromo-phenyl)-N—[N′-(2-thiophen-2-yl-acetyl)-hydrazinocarbothioyl]-acrylamide] | 212 to 213 |
| CC(C)c1ccc(/C=C/C(=O)NC(=S)NNC(=O)Cc2cccs2)cc1 [LW-8, 3-(4-Isopropyl-phenyl)-N—[N′-(2-thiophen-2-yl-acetyl)-hydrazinocarbothioyl]-acrylamide] | 201 to 202 |
| O=C(/C=C/c1ccc(-c2ccccc2)cc1)NC(=S)NNC(=O)Cc1cccs1 [LW-9, 3-Biphenyl-4-yl-N—[N′-(2-thiophen-2-yl-acetyl)-hydrazinocarbothioyl]-acrylamide] | 231 to 232 |
| COc1cccc(OC)c1/C=C/C(=O)NC(=S)NNC(=O)Cc1cccs1 [LW-10, 3-(2,6-Dimethoxy-phenyl)-N—[N′-(2-thiophen-2-yl-acetyl)-hydrazinocarbothioyl]-acrylamide] | 220 to 221 |
| O=C(/C=C/c1c(F)cc(F)cc1F)NC(=S)NNC(=O)Cc1cccs1 [LW-11, N—[N′-(2-Thiophen-2-yl-acetyl)-hydrazinocarbothioyl]-3-(2,4,6-trifluoro-phenyl)-acrylamide] | 207 to 208 |
| O=C(/C=C/c1ccc(F)cc1)NC(=S)NNC(=O)Cc1ccccc1 [LW-12, 3-(4-Fluoro-phenyl)-N—(N′-phenylacetyl-hydrazinocarbothioyl)-acrylamide] | 212 to 213 |

Continued, values first:

| melting point [°C] | SMILES |
| --- | --- |
| 210 to 211 | O=C(/C=C/c1c(F)cc(F)cc1F)NC(=S)NNC(=O)Cc1ccccc1 [LW-14, N—(N′-Phenylacetyl-hydrazinocarbothioyl)-3-(2,4,6-trifluoro-phenyl)-acrylamide] |
| 217 to 218 | O=C(/C=C/c1ccc(F)cc1)NC(=S)NNC(=O)c1cccs1 [LW-16, 3-(4-Fluoro-phenyl)-N—[N′-(thiophene-2-carbonyl)-hydrazinocarbothioyl]-acrylamide] |
| 161 to 162 | O=C(Cc1cccs1)NNC(=S)NC(=O)Cc1ccccc1 [LW-18, 2-Phenyl-N—[N′-(2-thiophen-2-yl-acetyl)-hydrazinocarbothioyl]-acetamide] |
| 209 to 210 | COc1cccc(OC)c1/C=C/C(=O)NC(=S)NNC(=O)c1cccs1 [LW-19, 3-(2,6-Dimethoxy-phenyl)-N—[N′-(thiophene-2-carbonyl)-hydrazinocarbothioyl]-acrylamide] |
| 217 to 218 | O=C(/C=C/c1cc(Br)cc(Br)c1)NC(=S)NNC(=O)c1cccs1 [LW-20, 3-(3,5-Dibromo-phenyl)-N—[N′-(thiophene-2-carbonyl)-hydrazinocarbothioyl]-acrylamide] |
| 195 to 196 | O=C(/C=C/c1cc(Br)cc(Br)c1)NC(=S)NNC(=O)Cc1ccc(F)cc1 [LW-21, 3-(3,5-Dibromo-phenyl)-N-{N′-[2-(4-fluoro-phenyl)-acetyl]hydrazinocarbothioyl}-acrylamide] |
| 182 to 183 | O=C(Cc1ccc(F)cc1)NNC(=S)NC(=O)Cc1ccccc1 [LW-22, N-{N′-[2-(4-Fluoro-phenyl)-acetyl]-hydrazinocarbothioyl}-2-phenyl-acetamide] |
| 224 to 225 | O=C(/C=C/c1cc(Br)cc(Br)c1)NC(=S)NNC(=O)c1ccccc1 [LW-23, N—(N′-Benzoyl-hydrazinocarbothioyl)-3-(3,5-dibromo-phenyl)-acrylamide] |
| 203 to 204 | Cc1cccc(CC(=O)NNC(=S)NC(=O)/C=C/c2cc(Br)cc(Br)c2)c1 [LW-24, 3-(3,5-Dibromo-phenyl)-N—[N′-(2-m-tolyl-acetyl)-hydrazinocarbothioyl]-acrylamide] |
| 149 to 150 | Cc1cccc(CC(=O)NNC(=S)NC(=O)Cc2ccccc2)c1 [LW-25, 2-Phenyl-N—[N′-(2-m-tolyl-acetyl)-hydrazinocarbothioyl]-acetamide] |
| 202 to 203 | COc1cccc(CC(=O)NNC(=S)NC(=O)/C=C/c2cc(Br)cc(Br)c2)c1 [LW-26, 3-(3,5-Dibromo-phenyl)-N-{N′-[2-(3-methoxy-phenyl)-acetyl]-hydrazinocarbothioyl}-acrylamide] |
| 174 to 175 | O=C(Cc1c(F)cccc1F)NNC(=S)NC(=O)Cc1ccccc1 [LW-28, N-{N′-[2-(2,6-Difluoro-phenyl)-acetyl]-hydrazinocarbothioyl}-2-phenyl-acetamide] |
| 178 to 179 | O=C(Cc1cc(F)cc(F)c1)NNC(=S)NC(=O)Cc1ccccc1 [LW-29, N-{N′-[2-(3,5-Difluoro-phenyl)-acetyl]-hydrazinocarbothioyl}-2-phenyl-acetamide] |
| 88 to 90 | O=C(CCc1ccccc1)NNC(=S)NC(=O)Cc1ccccc1 [LW-30, 2-Phenyl-N—[N′-(3-phenyl-propionyl)-hydrazinocarbothioyl]-acetamide] |
| 213 to 214 | O=C(/C=C/c1cc(Br)cc(Br)c1)NC(=S)NNC(=O)CCc1ccccc1 [LW-31, 3-(3,5-Dibromo-phenyl)-N—[N′-(3-phenyl-propionyl)-hydrazinocarbothioyl]acrylamide] |
| 178 to 179 | O=C(Cc1ccc(F)cc1)NNC(=S)NC(=O)Cc1ccc(F)cc1 [LW-32, 2-(4-Fluoro-phenyl)-N-{N′-[2-(4-fluoro-phenyl)-acetyl]-hydrazinocarbothioyl}-acetamide] |
| 186 to 187 | O=C(Cc1ccc(F)cc1)NNC(=S)NC(=O)Cc1c(F)cccc1F [LW-33, 2-(2,6-Difluoro-phenyl)-N-{N′-[2-(4-fluoro-phenyl)-acetyl]-hydrazinocarbothioyl}-acetamide] |
| 132 to 133 | O=C(Cc1ccc(F)cc1)NNC(=S)NC(=O)CC1CCCCC1 [LW-34, 2-Cyclohexyl-N-{N′-[2-(4-fluoro-phenyl)-acetyl]-hydrazinocarbothioyl}-acetamide] |
| 165 to 166 | COc1ccc(NC(=O)CNC(=O)COc2ccccc2)c(C)c1 [MM-1, N-[(4-methoxy-2-methylphenylcarbamoyl)methyl]-2-phenoxyacetamide] |
| 170 to 171 | COc1ccc(NC(=O)CNC(=O)COc2ccc(Cl)cc2)c(C)c1 [MM-2, 2-(4-Chloro-phenoxy)-N-[(4-methoxy-2-methyl-phenylcarbamoyl)-methyl]-acetamide] |
| 159 to 160 | COc1ccc(NC(=O)CNC(=O)COc2ccc(Br)cc2)c(C)c1 [MM-3, 2-(4-Bromo-phenoxy)-N-[(4-methoxy-2-methyl-phenylcarbamoyl)-methyl]-acetamide] |
| 205 to 206 | O=C(COc1ccc(Cl)cc1)NCC(=O)Nc1ccc(I)cc1 [MM-4, 2-(4-Chloro-phenoxy)-N-[(4-iodo-phenylcarbamoyl)-methyl]-acetamide] |
| 211 to 212 | O=C(COc1ccc(Br)cc1)NCC(=O)Nc1ccc(I)cc1 [MM-5, 2-(4-Bromo-phenoxy)-N-[(4-iodo-phenylcarbamoyl)-methyl]acetamide] |
